Test results: patent US8975417B2, “Pyrazolopyrrolidine derivatives and their use in the treatment of disease” (Novartis AG, priority 2013, dated 2015)
pIC50: −log10 of the molar value. Where two headings read alike, the source gives them in different places.

Legend:
His-Brd4(44-477) = His-Brd4(44-477) (Homo sapiens (Human), UniProt O60885); assay: TR-FRET in-vitro binding assay for BRD4; settings: biochemical
Protocol: (§1) TR-FRET In-Vitro Binding Assays for BRD2, BRD3, and BRD4:
(§2) All assays were performed in 384-well microtiter plates. Each assay plate contained 8-point serial dilutions for 40 test compounds, plus 16 high- and 16 low controls. Liquid handling and incubation steps were done on an Innovadyne Nanodrop Express equipped with a robotic arm (Thermo CatX, Perkin Elmer/Caliper Twister II) and an incubator (Liconic STX40, Thermo Cytomat 2C450). The assay plates were prepared by addition of 50 nl per well of compound solution in 90% DMSO HummingBird nanodispenser (Zinsser Analytic). The assay was started by stepwise addition of 4.5 μL per well of bromo domain protein (50 mM HEPES, pH 7.5, 0.005% Tween20, 0.1% BSA, 50 mM NaCl, 45 nM His-Brd2(60-472) or 45 nM His-Brd3(20-477) or 45 nM His-Brd4(44-477) all proteins produced in-house) and 4.5 μL per well of peptide solution (50 mM HEPES, pH 7.5, 0.005% Tween20, 0.1% BSA, 50 mM NaCl, 60 nM acetyl-histone H4 (AcK 5, 8, 12, 16) (Biosyntan GmbH)). Reactions were incubated at 30° C. for 35 minutes. Subsequently 4.5 μL per well detection mix (50 mM HEPES, pH 7.5, 0.005% Tween20, 0.1% BSA, 50 mM NaCl, 3 nM Eu-labeled anti-His6 antibody, 21 nM streptavidin-allophycocyanin) were added. After minutes incubation at 30° C., plates were measured in a Perkin Elmer EnVision multilabel reader.
(§3) Test compounds were dissolved in DMSO (10 mM) and transferred into 1.4 mL flat bottom or V-shaped Matrix tubes carrying a unique 2D matrix. The stock solutions were stored at […] if not used immediately. For the test procedure the vials were defrosted and identified by a scanner whereby a working sheet was generated that guided the subsequent working steps. Compound dilutions were made in 96 well plates. This format enabled the assay of maximally […] at 8 concentrations (single points) including 4 reference compounds, if desired (known BET inhibitors from the prior art, for this and other assays of the type disclosed herein). The dilution protocol included the production of “pre-dilution plates”, “master plates” and “assay plates”.
(§4) Polypropylene 96-well plates were used as pre-dilution plates. […] All dilution steps were done on a HamiltonSTAR robot.
(§5) 30 μL of individual compound dilutions including standard compound and controls of the 4 “pre-dilution plates” were transferred into a 384-well “master plate” including the following concentrations 10000, […], 1000, 300, 100, 30, 10 and 3 μM, respectively in 90% of DMSO.
(§6) Identical “assay plates” were then prepared by pipetting 50 nL each of compound dilutions of the “master plates” into 384-well “assay plates” by means of a HummingBird 384-channel dispenser. These plates were used directly for the assay which was performed in a total volume of 13.55 μL.

His-Brd2(60-472) = His-Brd2(60-472) (Homo sapiens (Human), UniProt P25440); assay: TR-FRET in-vitro binding assay for BRD2; settings: biochemical
Protocol: as §1, §2, §3, §4, §5, §6

K-562 cells = assay: Cell growth inhibition assay (CellTiter-Glo), K-562; format: cell-based, human
Protocol: (§7) Cell Growth Inhibition Assay
(§8) The human leukemia cell lines MV-4-11, THP-1 and K-562 were employed to characterize the effect of BET inhibitors on cellular proliferation and viability. Cells were obtained from the American Type Culture Collection (ATCC) and cultured at 37° C. in a humidified 5% CO2 incubator in the following media: MV-4-11: DMEM high glucose (Animed #1-26F01-I), 10% FCS (Animed #2-01F26-I), 4 mM L-Glutamine (Animed #5-10K50), 1 mM Sodium Pyruvate (Animed # G03625P), 1× Penicillin-Streptomycin (Animed # F12478P); K-562: Iscove's MEM (Animed #1-28F16-I), 10% FCS (Animed #2-01F26-I), 4 mM L-Glutamine (Animed #5-10K50), 1× Penicillin-Streptomycin (Animed # F12478P); THP-1: RPMI-1640 (Animed #1-41F01-I), 10% FCS (Animed #2-01F26-I), 2 mM L-Glutamine (Animed #5-10K50), 10 mM HEPES (Animed #5-31F100), 1 mM Sodium Pyruvate (Animed # G03625P), 1× Penicillin-Streptomycin (Animed # F12478P). The AML lines MV-4-11 and THP-1 are very sensitive to BET inhibitors and show massive cell death upon BET inhibition (Zuber et al., Nature, 478 (2011), 524-8). Compound-mediated suppression of cell proliferation/viability was assessed by quantification of cellular ATP levels using the CellTiter-Glo (CTG) reagent (Promega). Briefly, cells were seeded in 20 μl fresh medium into 384-well plates, followed by addition of 5 μL medium containing compound dilutions at 5-fold their final intended concentration. Dose-response effects were assessed by 3-fold serial dilutions of the test compound, starting at 10 μM. Following incubation of the cells for days at 37° C. and 5% CO2, the effect of inhibitors on cell viability was quantified following addition of 20 μl CTG and luminescence quantification (integration time: 100 ms) as per vendor manual, using a correspondingly equipped Tecan M200 multi-mode platereader (TECAN, Switzerland). For data analysis, the assay background value determined in wells containing medium, but no cells, was subtracted from all data points. To enable differentiation of cytotoxic from cytostatic compounds, the number of viable cells is assessed relative to that observed at the time of compound addition using a separate cell plate (day 0). The effect of a particular test compound concentration on cell proliferation/viability is expressed as percentage of the background- and day 0-corrected luminescence reading obtained for cells treated with vehicle only (DMSO, 0.1% final concentration), which is set as 100%, whereas that luminescence reading for wells containing medium is set as −100%. Compound concentrations leading to half-maximal (IC50) and total growth inhibition (TGI) were determined using standard four parameter curve fitting.

His-Brd3(20-477) = His-Brd3(20-477) (Homo sapiens (Human), UniProt Q15059); assay: TR-FRET in-vitro binding assay for BRD3; settings: biochemical
Protocol: as §1, §2, §3, §4, §5, §6

MV-4-11 cells = assay: Cell growth inhibition assay (CellTiter-Glo), MV-4-11; format: cell-based; settings: Homo sapiens, MV4-11, read-out: MV-4-11 TGI
Protocol: as §7, §8

THP-1 cells = assay: Cell growth inhibition assay (CellTiter-Glo), THP-1; format: cell-based; settings: Homo sapiens, read-out: THP-1 TGI
Protocol: as §7, §8

[1] = biological target: His-CREBBP (1081-1197) bromodomain (Homo sapiens (Human), UniProt Q92793); assay: AlphaScreen in-vitro binding assay for CREBBP; settings: biochemical
Protocol: AlphaScreen In-Vitro Binding Assay for CREBBP
In order to assess bromodomain selectivity, we set up a binding assay using the bromodomain encoded by the CREBBP gene. […] Reactions were incubated at 30° C. for 35 minutes. Subsequently 4.5 μL per well detection mix (50 mM HEPES, pH 7.5, 0.005% Tween20, 0.02% BSA, 150 mM NaCl, 45 μg/ml Ni-chelate acceptor beads, 45 μg/mL streptavidin-donor beads) (Perkin Elmer)) were added. After 60 minutes incubation at room temperature, plates were measured in a Perkin Elmer EnVision multilabel reader. IC50 values were determined from percent inhibition values at different compound concentrations by non-linear regression analysis.
as §3, §4
These plates were used directly for the assay which was performed in a total volume of 13.55 μL.

[2] = Homo sapiens, K562, read-out: K-562 TGI

Chain of His-Brd2(60-472) (P25440 60-472): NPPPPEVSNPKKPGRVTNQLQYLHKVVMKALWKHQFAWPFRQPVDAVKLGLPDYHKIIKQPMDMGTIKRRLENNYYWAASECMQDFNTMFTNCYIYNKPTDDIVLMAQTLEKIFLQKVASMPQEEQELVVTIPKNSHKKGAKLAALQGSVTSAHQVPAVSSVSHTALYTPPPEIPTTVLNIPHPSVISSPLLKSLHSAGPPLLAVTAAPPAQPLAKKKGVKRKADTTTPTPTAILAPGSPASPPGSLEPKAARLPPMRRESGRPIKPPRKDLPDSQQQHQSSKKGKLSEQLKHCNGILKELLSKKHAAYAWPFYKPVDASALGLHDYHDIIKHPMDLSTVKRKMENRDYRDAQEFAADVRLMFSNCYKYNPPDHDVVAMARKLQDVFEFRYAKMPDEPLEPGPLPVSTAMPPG
Chain of His-Brd3(20-477) (Q15059 20-477): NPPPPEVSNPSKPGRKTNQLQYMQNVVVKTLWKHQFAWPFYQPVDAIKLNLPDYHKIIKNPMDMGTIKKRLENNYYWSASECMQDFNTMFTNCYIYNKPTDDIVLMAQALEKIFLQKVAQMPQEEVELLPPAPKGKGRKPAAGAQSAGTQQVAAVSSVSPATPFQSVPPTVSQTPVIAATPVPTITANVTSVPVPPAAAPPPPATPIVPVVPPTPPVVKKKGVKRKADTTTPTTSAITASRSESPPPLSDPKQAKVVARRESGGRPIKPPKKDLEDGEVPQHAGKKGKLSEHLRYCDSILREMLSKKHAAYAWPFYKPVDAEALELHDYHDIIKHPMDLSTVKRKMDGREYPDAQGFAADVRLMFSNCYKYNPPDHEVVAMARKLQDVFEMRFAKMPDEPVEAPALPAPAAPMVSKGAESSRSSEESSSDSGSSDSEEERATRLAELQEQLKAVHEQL
Chain of His-CREBBP (1081-1197) bromodomain (Q92793 1081-1197): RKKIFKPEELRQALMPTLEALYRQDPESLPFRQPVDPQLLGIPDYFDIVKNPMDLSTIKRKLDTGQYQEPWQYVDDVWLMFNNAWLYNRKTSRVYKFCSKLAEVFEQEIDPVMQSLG

SMILES	pIC50 (His-Brd4(44-477))	pIC50 (His-Brd2(60-472))	IC (total growth inhibition) (K-562 cells; [2]) [µM]	pIC50 (His-Brd3(20-477))	IC (total growth inhibition) (MV-4-11 cells) [µM]	IC (total growth inhibition) (THP-1 cells) [µM]	pIC50 [1]	IC (total growth inhibition) (K-562 cells; read-out: K-562 TGI) [µM]
COc1ncc(-n2nc(C)c3c2C(=O)N(c2cc(Cl)c(=O)n(C)c2)C3c2ccc(Cl)cc2)c(OC)n1 (stereo not shown) [Example 53, 5-(5-chloro-1-methyl-6-oxo-1,6-dihydropyridin-3-yl)-4-(4-chlorophenyl)-1-(2,4-dimethoxypyrimidin-5-yl)-3-methyl-4,5-dihydropyrrolo[3,4-c]pyrazol-6(1H)-one]	6.89	7.01	> 10	6.92	0.372	0.685		
COc1ncccc1-n1nc2c(c1C)C(c1ccc(F)cc1F)N(c1cc(C)c3nnc(C)n3c1)C2=O (stereo not shown) [Example 193, 4-(2,4-difluorophenyl)-5-(3,8-dimethyl-[1,2,4]triazolo[4,3-a]pyridin-6-yl)-2-(2-methoxypyridin-3-yl)-3-methyl-4,5-dihydropyrrolo[3,4-c]pyrazol-6(2H)-one]			> 10		0.0985	0.141		
CNc1cc(N2C(=O)c3c(c(C)nn3C3CC3)C2c2ccc(Cl)cc2)nn2c(C)nnc12 (racemic) [Example 113, 4-(4-chlorophenyl)-1-cyclopropyl-3-methyl-5-(3-methyl-8-(methylamino)-[1,2,4]triazolo[4,3-b]pyridazin-6-yl)-4,5-dihydropyrrolo[3,4-c]pyrazol-6(1H)-one]	7.17	7.07		6.92			< 4.43	>10
Cc1[nH]nc2c1C(c1ccc(Cl)cc1F)N(c1cc(C)c(=O)n(C)c1)C2=O (stereo not shown) [Example 196, 4-(4-chloro-2-fluorophenyl)-5-(1,5-dimethyl-6-oxo-1,6-dihydropyridin-3-yl)-3-methyl-4,5-dihydropyrrolo[3,4-c]pyrazol-6(2H)-one]			> 10		0.266	0.53		
Cc1cc(N2C(=O)c3nn(C)cc3[C@H]2c2ccc(Cl)cc2)cn(C)c1=O [Example 16, (R)-4-(4-chlorophenyl)-5-(1,5-dimethyl-6-oxo-1,6-dihydropyridin-3-yl)-2-methyl-4,5-dihydropyrrolo[3,4-c]pyrazol-6(2H)-one]	7.09	7.00	> 10	7.18	0.116	0.207		
Cc1cc(N2C(=O)c3nn(C(C)C)c(C)c3C2c2ccc(Cl)cc2F)cn2c(C)nnc12 (stereo not shown) [Example 169, 4-(4-chloro-2-fluorophenyl)-5-(3,8-dimethyl-[1,2,4]triazolo[4,3-a]pyridin-6-yl)-2-isopropyl-3-methyl-4,5-dihydropyrrolo[3,4-c]pyrazol-6(2H)-one]			> 10		0.0576	0.121		
Cc1c2c(nn1C1CC1)C(=O)N(c1cc(Cl)c(=O)n(C)c1)[C@H]2c1ccc(Cl)cc1 [Example 18, (S)-5-(5-chloro-1-methyl-6-oxo-1,6-dihydropyridin-3-yl)-4-(4-chlorophenyl)-2-cyclopropyl-3-methyl-4,5-dihydropyrrolo[3,4-c]pyrazol-6(2H)-one]	4.64	4.52	> 10	4.57	4.04	> 10		
Cc1nn(C2CC2)c2c1[C@H](c1ccc(Cl)cc1)N(c1cc(C)c3nnc(C)n3c1)C2=O [Example 118, (S)-4-(4-chlorophenyl)-1-cyclopropyl-5-(3,8-dimethyl-[1,2,4]triazolo[4,3-a]pyridin-6-yl)-3-methyl-4,5-dihydropyrrolo[3,4-c]pyrazol-6(1H)-one]			> 10		3.35	> 10		
Cc1c2c(nn1C)C(=O)N(c1cc(Cl)c(=O)n(C)c1)[C@@H]2c1ccc(Cl)cc1 [Example 7, (R)-5-(5-chloro-1-methyl-6-oxo-1,6-dihydropyridin-3-yl)-4-(4-chlorophenyl)-2,3-dimethyl-4,5-dihydropyrrolo[3,4-c]pyrazol-6(2H)-one]	7.14	7.00	> 10	7.17	0.107	0.191		
Cn1cc(N2C(=O)c3nn(C4CC4)c(C(F)(F)F)c3C2c2ccc(Cl)cc2)cc(Cl)c1=O (stereo not shown) [Example 40, 5-(5-chloro-1-methyl-6-oxo-1,6-dihydropyridin-3-yl)-4-(4-chlorophenyl)-2-cyclopropyl-3-(trifluoromethyl)-4,5-dihydropyrrolo[3,4-c]pyrazol-6(2H)-one]	6.66	6.80		6.82			6.13	
Cc1nn(C2CC2)c2c1[C@@H](c1ccc(F)cc1F)N(c1cc(C)c3nnc(C)n3c1)C2=O [Example 188, (S)-1-cyclopropyl-4-(2,4-difluorophenyl)-5-(3,8-dimethyl-[1,2,4]triazolo[4,3-a]pyridin-6-yl)-3-methyl-4,5-dihydropyrrolo[3,4-c]pyrazol-6(1H)-one]	7.51	7.39		7.40			4.72	
